In brackets after ≈: the same amount, converted by molar mass.
Legend:
[1] = cited from earlier work
[2] = in vivo pharmacokinetics, plasma anastrozole by LC-MS/MS; parameters: species or system female Sprague-Dawley rats
Protocol: A 91-day pharmacokinetic study was conducted on female Sprague-Dawley rats (≧250 g). Test article animals were dosed by a single rod implantation, while positive drug control animals were dosed by a single injection of an ethanol:water (3:7, v/v) solution of equivalent dose. Prior to dosing, all animals were anesthetized by intraperitoneal injection of a cocktail containing ketamine HCl (75 mg/kg) and Xylazine HCl (5 mg/kg). Following anesthesia, the dorsal surface of all animals were shaved and prepared for aseptic administration by wiping with betadine and 70% isopropyl alcohol (3 times each). Animals were placed on a sterile surgical field and covered with Steridrape™. Dosing sites were closed with wound clips. The administration site was circled with indelible ink for future identification of location. Following dosing, all animals were placed in a warmed recovery area and observed until recovered from anesthesia and ambulatory. All animals were observed throughout dosing and each scheduled collection. Body weights were collected weekly in addition to the pre-dose body weight during the duration of the study. Serial blood samples were collected via tail vein or jugular vein at pre-dose, 2 h, 6 h, 24 h (1 d), 2 d, 4 d, 7 d, 10 d, 14 d, 21 d, 28 d, 35 d, 42 d, 49 d, 56 d, 63 d, 70 d, 77 d, 84 d and 91 d and analyzed via LC-MS/MS. Blood samples were stored on wet ice until processed to plasma by centrifugation within 30 min of collection. Plasma were stored at −80° C. until LC-MS/MS analysis.
Briefly, 150 μl of frozen in vivo sample or blank plasma (for double blank, blank and standards) was completely thawed and briefly centrifuged (2000 G, 3 min, 4° C.). […] For extraction, 1 ml diethyl ether:dichloromethane (7:3, v/v) was added to 25 μl of plasma (blank, standard or sample) and 10 μl of aqueous internal standard (100 ng/ml Chlorpheniramine) or deionized water (for double blank) in a glass centrifuge tube using glass serological pipettes and vortexed for 40 s. […]
The auto-sampler of the LC system was kept at 5° C. […] The limit of quantitation (LOQ) was 0.6 ng/ml.

[3] = effective steady state diffusion coefficient from cylindrical silk reservoir; format: physicochemical; conditions: anastrozole diffusion in silk reservoir rods
Description: and different effective length, le values of 10 or 30 mm.

[4] = cited from earlier work; remark: listed apart in the source
[5] = cited from earlier work; remark: listed apart in the source
[6] = cited from earlier work; remark: listed apart in the source
[7] = stability of anastrozole under in vitro release conditions (LC-MS/MS); conditions: deionized water, 0.02 wt. % NaN3, 37° C., longest inter-sampling duration 1 week
Protocol: The release volume was determined to ensure perfect sink conditions in case of a complete burst release according to:
where V, L and S are the release volume, drug loading and aqueous solubility, respectively. At pre-determined time points, 1 ml of the release medium was sampled. After each sampling, the whole medium was exchanged with fresh buffer.

- half-life ([2]; female, Sprague-Dawley, rat, plasma, sc, single s.c. injection of solution, high and low dose, read-out: apparent terminal elimination half-life (converted)): ~360 min
- time of peak plasma concentration ([2]; single s.c. injection of solution (water:ethanol 7:3), high (14 mg) and low (5.8 mg) dose): 6 h
- time to decline to background plasma levels ([2]; single s.c. injection of solution, high and low dose): ≤ 96 h
- effective steady state diffusion coefficient De [3]: 2.4×10^−8 cm^2/s
- degradation of Anastrozole under release conditions [7]: No significant degradation
Structure (SMILES): CC(C)(C#N)c1cc(Cn2cncn2)cc(C(C)(C)C#N)c1 [anastrozole]
- water solubility ([1]; at 25° C.): 0.5 mg/mL (≈ 1700 µM)
- aqueous solubility Cs of anastrozole in water ([1]; value used in diffusion equation): 5 mg/mL
- terminal elimination half-life t1/2 ([4]; Product Monograph value): 50 h
- volume of distribution V ([4]; Product Monograph value): 74 L
- steady state plasma concentration Css ([4]; factors in reported accumulation): 25 ng/mL
- log P(octanol/water) [5]: 1.58
- pKa [6]: 1.4

From US20150238617A1, “SILK RESERVOIRS FOR SUSTAINED DELIVERY OF ANTI-CANCER AGENTS” (TUFTS UNIVERSITY, priority 2012, published 2015)
